# From PMC9127750, “Structure-based design of CDC42 effector interaction inhibitors for the treatment of cancer” (Cell reports, 2022)
# “And” between values parts separate entries of the source, which are not always exact repeats. Identical values can stand only once.
# Tested on: WM3248 melanoma cells, 486 antibodies
# Experiment: Reverse phase protein arrays (RPPA)
# Assay type: cell-based, Human
# Conditions: 5 uM, single replicates
# From the text: Pellets were snap frozen in liquid nitrogen and shipped to MD Anderson Cancer Center core RPPA facility for RPPA analysis (Table S5). Three biological replicates for each sample were generated.
# Nomenclatures on the RPPA heatmaps: name_of_antibody.species_of_antibody.status_of_antibody. V - antibody validated; C - validation of antibody in progress; Q - antibody nonspecific; E – under evaluation; antibodies raised in M - mouse, G - goat, R - rabbit, or T - rat.
compound,measurement,value
"CN(C)c1cccc(Nc2cc(-c3ccccc3)nc(C3CCNCC3)n2)c1 [ARN22089, N1,N1-dimethyl-N3-(6-phenyl-2-(piperidin-4-yl)pyrimidin-4-yl)benzene-1,3-diamine]",RPPA RIP3.R.C,0.966 and 1.053 and 1.158
same,RPPA RIP.R.C,1.003 and 0.876 and 0.747
same,RPPA RPA32.R.V,0.852 and 0.696
same,RPPA RPA32_pS4_S8.R.C,1.136 and 0.833 and 0.517
same,RPPA RRM1.R.C,0.879 and 1.059 and 1.047
same,RPPA RRM2.R.C,0.859 and 1.229 and 0.937
same,RPPA RSK1.R.V,1.126 and 0.877 and 0.665
same,RPPA RSK.R.C,1.019 and 0.958
same,RPPA Rab11.R.C,0.952 and 1.156 and 1.116
same,RPPA Rab25.R.V,0.918 and 1.136 and 1.098
same,RPPA Rad17_pS645.R.V,0.999 and 1.251 and 0.988
same,RPPA Rad23A.R.C,0.955 and 1.149 and 0.502
same,RPPA Rad50.R.V,1.003 and 1.194 and 0.770
same,RPPA Rad51.R.C,1.003 and 1.032 and 0.980
same,RPPA Raptor.R.V,0.960 and 1.161 and 0.962
same,RPPA Rb.M.Q,1.194 and 0.869 and 0.844
same,RPPA Rb_pS807_S811.R.V,1.080 and 1.099 and 0.998
same,RPPA Rheb.M.C,1.062 and 0.914 and 0.936
same,RPPA Rictor.R.C,1.000 and 1.032 and 1.026
same,RPPA Rictor_pT1135.R.V,1.014 and 1.199 and 1.106
same,RPPA S6.M.V,1.062 and 0.879 and 1.272
same,RPPA S6_pS235_S236.R.V,1.439 and 1.242 and 1.218
same,RPPA S6_pS240_S244.R.V,1.857 and 2.231 and 1.126
same,RPPA SCD.M.V,1.065 and 0.945 and 1.006
same,RPPA SDHA.R.V,0.933 and 1.191 and 1.108
same,RPPA SF2.R.V,1.031 and 0.941 and 1.112
same,RPPA SFRP1.R.V,1.004 and 0.892 and 0.990
same,RPPA SGK1.R.V,1.163 and 1.199 and 0.933
same,RPPA SGK3.R.V,0.990 and 0.992 and 0.997
same,RPPA SHP2.R.V,1.046 and 0.930 and 1.005
same,RPPA SHP.2_pY542.R.C,0.901 and 0.851
same,RPPA SIRPαR.V,1.213 and 0.860 and 0.910
same,RPPA SLC1A5.R.C,0.927 and 0.907 and 0.859
same,RPPA SOD1.M.V,0.996 and 0.939
same,RPPA SOD2.R.V,1.034 and 0.952 and 1.114
same,RPPA SOX7.R.V,0.983 and 0.930 and 0.848
same,RPPA STING.R.V,0.930 and 1.130 and 0.957
same,RPPA Shc_pY317.R.C,0.667 and 0.896
same,RPPA Slfn11.G.C,0.877 and 0.828 and 0.650
same,RPPA Smac.M.Q,0.952 and 1.016 and 0.799
same,RPPA Smad1.R.V,0.992 and 1.196 and 1.151
same,RPPA Smad3.R.V,0.939 and 1.113 and 0.837
same,RPPA Smad4.R.V,1.058 and 0.905 and 1.133
same,RPPA Snail.M.Q,1.030 and 0.955 and 1.052
same,RPPA Sox2.R.V,0.983 and 0.974 and 1.000
same,RPPA Sox17.R.V,0.873 and 0.902
same,RPPA Src.M.V,1.031 and 1.029 and 1.140
same,RPPA Src_pY416.R.V,1.004 and 0.964
same,RPPA Src_pY527.R.V,0.980 and 1.499
same,RPPA Stat1_pY701.R.V,1.025 and 0.919 and 0.955
same,RPPA Stat3.R.C,1.026 and 1.019
same,RPPA Stat3_pY705.R.C,1.097 and 0.794 and 0.850
same,RPPA Stat5a.R.V,0.973 and 1.401 and 1.115
same,RPPA Stathmin.1.R.V,0.937 and 0.952 and 1.084
same,RPPA Syk.M.V,0.889 and 1.061 and 1.011
same,RPPA Synaptophysin.R.C,1.047 and 0.925 and 1.079
same,RPPA TAZ.R.V,1.033 and 0.986 and 0.848
same,RPPA TEAD.R.C,0.869 and 1.210 and 0.956
same,RPPA TFAM.R.V,0.929 and 1.064 and 1.050
same,RPPA TFRC.R.V,0.850 and 0.994
same,RPPA TIGAR.R.V,1.007 and 1.053
same,RPPA TRAP1.M.V,1.020 and 0.986
same,RPPA TRIM24.R.C,1.055 and 0.901
same,RPPA TRIM25.R.C,0.917 and 1.142 and 1.151
same,RPPA TRIP13.R.V,1.080 and 0.849 and 0.914
same,RPPA Tau.M.C,0.914 and 1.000
same,RPPA Transglutaminase.M.V,1.130 and 0.535
same,RPPA level HLA.DQA1.R.V,0.968 and 1.061 and 0.815
same,RPPA level HLA.DR.DP.DQ.DX.R.C,0.974 and 0.976 and 0.833
same,RPPA level HMHA1.R.V,1.021 and 1.238 and 1.140
same,RPPA level HNRNPK.R.V,0.971 and 0.906
same,RPPA level HSP27.M.C,1.164 and 1.033
same,RPPA level HSP27_pS82.R.V,0.984 and 1.234 and 1.120
same,RPPA level HSP60.R.V,0.905 and 1.108
same,RPPA level HSP70.R.C,0.973 and 0.970
same,RPPA level Hexokinase.I.R.C,0.945 and 0.709
same,RPPA level Hexokinase.II.R.V,1.124 and 0.975 and 0.876
same,RPPA level Hif.1αR.C,1.102 and 1.349 and 0.701
same,RPPA level Histone.H3.R.V,0.982 and 1.330 and 0.576
same,RPPA level Histone.H3_pS10.R.V,0.692 and 0.713
same,RPPA level IDO.R.C,0.970 and 1.199 and 1.031
